Reference: patent publication US9833497B2, “Human originated EGF domain proteins and use of the same” (CHENGDU SOURCEBIO LIMITED-LIABILITY COMPANY, priority 2013, dated 2017)

Assays:
Type in all cases: cell-based
Klebsiella pneumonia = test: MIC against Gram-negative bacteria: Klebsiella pneumonia; settings: 5×10^5 CFU/mL
In short: (§1)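 MIC, the lowest recombinant protein concentration giving no bacterial growth, found by two-fold serial dilution of human EGF-domain proteins in triplicate. Inoculum 5×10^5 CFU/mL in LB from cultures at McFarland 0.5; plates incubated at 37° C, 175 rpm shaking.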

E. coli DH5α = test: Antibacterial activity: MIC and growth curve against E. coli DH5α in 96-well plate; settings: minimal inhibitory concentration against E. coli DH5α; 96-well plate, 5×10^5 CFU/mL, 37° C., judged after 8 h
In short: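 MIC taken as lowest protein level with no bacterial growth, tracked by A600 every 30 min during 37 °C, 175 rpm culture. Two-fold protein series 50-12.5 μg/mL final, triplicate wells, against 5×10^5 CFU/mL of LB-washed mid-log cells.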

Proteus vulgaris = test: MIC against Gram-negative bacteria: Proteus vulgaris; settings: 5×10^5 CFU/mL
In short: as §1

Aeromonas hydrophila = test: MIC against Gram-negative bacteria: Aeromonas hydrophila; settings: 5×10^5 CFU/mL
In short: as §1

Citrobacter diversus = test: MIC against Gram-negative bacteria: Citrobacter diversus; settings: 5×10^5 CFU/mL
In short: as §1

Enterobacter cloacae = test: MIC against Gram-negative bacteria: Enterobacter cloacae; settings: 5×10^5 CFU/mL
In short: as §1

Serratia marcescens = test: MIC against Gram-negative bacteria: Serratia marcescens; settings: 5×10^5 CFU/mL
In short: as §1

Pseudomonas aeruginosa = test: MIC against Gram-negative bacteria: Pseudomonas aeruginosa; settings: 5×10^5 CFU/mL
In short: as §1

Moraxella catarrhalis = test: MIC against Gram-negative bacteria: Moraxella catarrhalis; settings: 5×10^5 CFU/mL
In short: as §1

Proteus mirabilis = test: MIC against Gram-negative bacteria: Proteus mirabilis; settings: 5×10^5 CFU/mL
In short: as §1

E. coli BL21 = test: MIC against Gram-negative bacteria: E. coli BL21; settings: 5×10^5 CFU/mL
In short: as §1

[1] = E. coli BL21, 10 h cultivation at 37° C.
[2] = K. pneumonia, 10 h cultivation at 37° C.
[3] = P. vulgaris, 10 h cultivation at 37° C.
[4] = A. hydrophila, 10 h cultivation at 37° C.
[5] = C. diversus, 10 h cultivation at 37° C.
[6] = E. cloacae, 10 h cultivation at 37° C.
[7] = S. marcescens, 10 h cultivation at 37° C.
[8] = P. aeruginosa, 10 h cultivation at 37° C.
[9] = M. catarrhalis, 10 h cultivation at 37° C.
[10] = P. mirabilis, 10 h cultivation at 37° C.
[11] = 10 h cultivation at 37° C., two-fold serial dilution
[12] = Klebsiella pneumonia, 96-well plate, 37° C., 10 h
[13] = Proteus vulgaris, 96-well plate, 37° C., 10 h
[14] = Aeromonas hydrophila, 96-well plate, 37° C., 10 h
[15] = Citrobacter diversus, 96-well plate, 37° C., 10 h
[16] = Enterobacter cloacae, 96-well plate, 37° C., 10 h
[17] = Serratia marcescens, 96-well plate, 37° C., 10 h
[18] = Pseudomonas aeruginosa, 96-well plate, 37° C., 10 h
[19] = Moraxella catarrhalis, 96-well plate, 37° C., 10 h
[20] = Proteus mirabilis, 96-well plate, 37° C., 10 h
[21] = E. coli BL21, 96-well plate, 37° C., 10 h

## PRT1377 (PASACPGGCGPRELCRAGQCVCVEGFRGPDC; listed as Homo sapiens)
Klebsiella pneumonia; Klebsiella pneumonia, 10 h cultivation at 37° C.
  MIC against K. pneumonia: 50 µg/mL
E. coli DH5α
  MIC: 25 µg/mL
Proteus vulgaris; Proteus vulgaris, 10 h cultivation at 37° C.
  MIC against P. vulgaris: 50 µg/mL
Aeromonas hydrophila; Aeromonas hydrophila, 10 h cultivation at 37° C.
  MIC against A. hydrophila: 50 µg/mL
Citrobacter diversus; Citrobacter diversus, 10 h cultivation at 37° C.
  MIC against C. diversus: 12.5 µg/mL
Enterobacter cloacae; Enterobacter cloacae, 10 h cultivation at 37° C.
  MIC against E. cloacae: 12.5 µg/mL
Serratia marcescens; Serratia marcescens, 10 h cultivation at 37° C.
  MIC against S. marcescens: 12.5 µg/mL
Pseudomonas aeruginosa; Pseudomonas aeruginosa, 10 h cultivation at 37° C.
  MIC against P. aeruginosa: 12.5 µg/mL
Moraxella catarrhalis; Moraxella catarrhalis, 10 h cultivation at 37° C.
  MIC against M. catarrhalis: 50 µg/mL
Proteus mirabilis; Proteus mirabilis, 10 h cultivation at 37° C.
  MIC against P. mirabilis: 12.5 µg/mL
E. coli BL21; [1]
  MIC against E. coli BL21: 50 µg/mL

## PRT482 (ECIDDETEEICGGHGKCYCGNCYCKAGWHGDKCE; listed as Homo sapiens)
Klebsiella pneumonia; 96-well plate, 37° C., 10 h
  MIC against K. pneumonia: 12.5 µg/mL
E. coli DH5α
  MIC: 50 µg/mL
Proteus vulgaris; 96-well plate, 37° C., 10 h
  MIC against P. vulgaris: 50 µg/mL
Aeromonas hydrophila; 96-well plate, 37° C., 10 h
  MIC against A. hydrophila: 50 µg/mL
Citrobacter diversus; 96-well plate, 37° C., 10 h
  MIC against C. diversus: 25 µg/mL
Enterobacter cloacae; 96-well plate, 37° C., 10 h
  MIC against E. cloacae: 25 µg/mL
Serratia marcescens; 96-well plate, 37° C., 10 h
  MIC against S. marcescens: 25 µg/mL
Pseudomonas aeruginosa; 96-well plate, 37° C., 10 h
  MIC against P. aeruginosa: 50 µg/mL
Moraxella catarrhalis; 96-well plate, 37° C., 10 h
  MIC against M. catarrhalis: 12.5 µg/mL
Proteus mirabilis; 96-well plate, 37° C., 10 h
  MIC against P. mirabilis: 25 µg/mL
E. coli BL21; 96-well plate, 37° C., 10 h
  MIC against E. coli BL21: 12.5 µg/mL

## PRT595 (CSCHASGVSPMECPPGGGACLCDPVTGACPCLPNVTGLACDRCADGYWNLVPGRGCQS; listed as Homo sapiens)
Klebsiella pneumonia; 96-well plate, 37° C., 10 h
  MIC K. pneumonia: 50 µg/mL
E. coli DH5α
  MIC: 12.5 µg/mL
Proteus vulgaris; 96-well plate, 37° C., 10 h
  MIC P. vulgaris: 50 µg/mL
Aeromonas hydrophila; 96-well plate, 37° C., 10 h
  MIC A. hydrophila: 50 µg/mL
Citrobacter diversus; 96-well plate, 37° C., 10 h
  MIC C. diversus: 12.5 µg/mL
Enterobacter cloacae; 96-well plate, 37° C., 10 h
  MIC E. cloacae: 12.5 µg/mL
Serratia marcescens; 96-well plate, 37° C., 10 h
  MIC S. marcescens: 25 µg/mL
Pseudomonas aeruginosa; 96-well plate, 37° C., 10 h
  MIC P. aeruginosa: 12.5 µg/mL
Moraxella catarrhalis; 96-well plate, 37° C., 10 h
  MIC M. catarrhalis: 50 µg/mL
Proteus mirabilis; 96-well plate, 37° C., 10 h
  MIC P. mirabilis: 12.5 µg/mL
E. coli BL21; 96-well plate, 37° C., 10 h
  MIC E. coli BL21: 50 µg/mL

## PRT259 (GGCHTDALCSYVGPGQSRCTCKLGFAGDGYQC; listed as Homo sapiens)
Klebsiella pneumonia; [2]
  MIC (μg/mL) K. pneumonia: 12.5 µg/mL
E. coli DH5α
  MIC: 12.5 µg/mL
Proteus vulgaris; [3]
  MIC (μg/mL) P. vulgaris: 50 µg/mL
Aeromonas hydrophila; [4]
  MIC (μg/mL) A. hydrophila: 12.5 µg/mL
Citrobacter diversus; [5]
  MIC (μg/mL) C. diversus: 50 µg/mL
Enterobacter cloacae; [6]
  MIC (μg/mL) E. cloacae: 50 µg/mL
Serratia marcescens; [7]
  MIC (μg/mL) S. marcescens: 25 µg/mL
Pseudomonas aeruginosa; [8]
  MIC (μg/mL) P. aeruginosa: 50 µg/mL
Moraxella catarrhalis; [9]
  MIC (μg/mL) M. catarrhalis: 12.5 µg/mL
Proteus mirabilis; [10]
  MIC (μg/mL) P. mirabilis: 25 µg/mL
E. coli BL21; [1]
  MIC (μg/mL) E. coli BL21: 25 µg/mL

## PRT1069 (VTNPCDRKKCEWLCLLSPSGPVCTCPNGKRLDNGTCV; listed as Homo sapiens)
Klebsiella pneumonia; [11]
  MIC K. pneumonia: 25 µg/mL
E. coli DH5α
  MIC: 12.5 µg/mL
Proteus vulgaris; [11]
  MIC P. vulgaris: 25 µg/mL
Aeromonas hydrophila; [11]
  MIC A. hydrophila: 12.5 µg/mL
Citrobacter diversus; [11]
  MIC C. diversus: 50 µg/mL
Enterobacter cloacae; [11]
  MIC E. cloacae: 50 µg/mL
Serratia marcescens; [11]
  MIC S. marcescens: 25 µg/mL
Pseudomonas aeruginosa; [11]
  MIC P. aeruginosa: 12.5 µg/mL
Moraxella catarrhalis; [11]
  MIC M. catarrhalis: 25 µg/mL
Proteus mirabilis; [11]
  MIC P. mirabilis: 12.5 µg/mL
E. coli BL21; [11]
  MIC E. coli BL21: 50 µg/mL

## PRT1208 (VHHGCEDDPCPEGSECVSDPWEEKHTCVCPSGRFGQCP; listed as Homo sapiens)
Klebsiella pneumonia; [12]
  MIC against K. pneumonia: 25 µg/mL
E. coli DH5α
  MIC: 12.5 µg/mL
Proteus vulgaris; [13]
  MIC against P. vulgaris: 25 µg/mL
Aeromonas hydrophila; [14]
  MIC against A. hydrophila: 50 µg/mL
Citrobacter diversus; [15]
  MIC against C. diversus: 25 µg/mL
Enterobacter cloacae; [16]
  MIC against E. cloacae: 12.5 µg/mL
Serratia marcescens; [17]
  MIC against S. marcescens: 12.5 µg/mL
Pseudomonas aeruginosa; [18]
  MIC against P. aeruginosa: 12.5 µg/mL
Moraxella catarrhalis; [19]
  MIC against M. catarrhalis: 12.5 µg/mL
Proteus mirabilis; [20]
  MIC against P. mirabilis: 50 µg/mL
E. coli BL21; [21]
  MIC against E. coli BL21: 25 µg/mL

## PRT750 (DIDECQVAPGEAPTCDHHCHNHLGGFYCSCRAGYVLHRNKRTCS; listed as Homo sapiens)
Klebsiella pneumonia; [2]
  MIC (μg/mL) K. pneumonia: 25 µg/mL
E. coli DH5α
  MIC: 25 µg/mL
Proteus vulgaris; [3]
  MIC (μg/mL) P. vulgaris: 12.5 µg/mL
Aeromonas hydrophila; [4]
  MIC (μg/mL) A. hydrophila: 25 µg/mL
Citrobacter diversus; [5]
  MIC (μg/mL) C. diversus: 50 µg/mL
Enterobacter cloacae; [6]
  MIC (μg/mL) E. cloacae: 12.5 µg/mL
Serratia marcescens; [7]
  MIC (μg/mL) S. marcescens: 50 µg/mL
Pseudomonas aeruginosa; [8]
  MIC (μg/mL) P. aeruginosa: 50 µg/mL
Moraxella catarrhalis; [9]
  MIC (μg/mL) M. catarrhalis: 12.5 µg/mL
Proteus mirabilis; [10]
  MIC (μg/mL) P. mirabilis: 50 µg/mL
E. coli BL21; [1]
  MIC (μg/mL) E. coli BL21: 12.5 µg/mL

## PRT865 (CSCHPVGSAVLPANSVTFCDPSNGDCPCKPGVAGRRCDRCMVGYWGFGDYGCRP; listed as Homo sapiens)
Klebsiella pneumonia; [2]
  MIC (μg/mL) K. pneumonia: 50 µg/mL
E. coli DH5α
  MIC: 25 µg/mL
Proteus vulgaris; [3]
  MIC (μg/mL) P. vulgaris: 12.5 µg/mL
Aeromonas hydrophila; [4]
  MIC (μg/mL) A. hydrophila: 50 µg/mL
Citrobacter diversus; [5]
  MIC (μg/mL) C. diversus: 12.5 µg/mL
Enterobacter cloacae; [6]
  MIC (μg/mL) E. cloacae: 12.5 µg/mL
Serratia marcescens; [7]
  MIC (μg/mL) S. marcescens: 12.5 µg/mL
Pseudomonas aeruginosa; [8]
  MIC (μg/mL) P. aeruginosa: 25 µg/mL
Moraxella catarrhalis; [9]
  MIC (μg/mL) M. catarrhalis: 50 µg/mL
Proteus mirabilis; [10]
  MIC (μg/mL) P. mirabilis: 25 µg/mL
E. coli BL21; [1]
  MIC (μg/mL) E. coli BL21: 12.5 µg/mL

## PRT28 (VDACLLNPCQNQGSCRHLPGAPHGYTCDCVGGYFGHHCE; listed as Homo sapiens)
Klebsiella pneumonia; [12]
  MIC (μg/mL) K. pneumonia: 50 µg/mL
E. coli DH5α
  MIC: 50 µg/mL
Proteus vulgaris; [13]
  MIC (μg/mL) P. vulgaris: 25 µg/mL
Aeromonas hydrophila; [14]
  MIC (μg/mL) A. hydrophila: 12.5 µg/mL
Citrobacter diversus; [15]
  MIC (μg/mL) C. diversus: 25 µg/mL
Enterobacter cloacae; [16]
  MIC (μg/mL) E. cloacae: 25 µg/mL
Serratia marcescens; [17]
  MIC (μg/mL) S. marcescens: 50 µg/mL
Pseudomonas aeruginosa; [18]
  MIC (μg/mL) P. aeruginosa: 12.5 µg/mL
Moraxella catarrhalis; [19]
  MIC (μg/mL) M. catarrhalis: 50 µg/mL
Proteus mirabilis; [20]
  MIC (μg/mL) P. mirabilis: 12.5 µg/mL
E. coli BL21; [21]
  MIC (μg/mL) E. coli BL21: 25 µg/mL

## PRT97 (DSRGCARWCPQNSSCVNATACRCNPGFSSFSEIITTPTETCD; listed as Homo sapiens)
Klebsiella pneumonia; [12]
  MIC (μg/mL) K. pneumonia: 12.5 µg/mL
E. coli DH5α
  MIC: 25 µg/mL
Proteus vulgaris; [13]
  MIC (μg/mL) P. vulgaris: 12.5 µg/mL
Aeromonas hydrophila; [14]
  MIC (μg/mL) A. hydrophila: 12.5 µg/mL
Citrobacter diversus; [15]
  MIC (μg/mL) C. diversus: 50 µg/mL
Enterobacter cloacae; [16]
  MIC (μg/mL) E. cloacae: 12.5 µg/mL
Serratia marcescens; [17]
  MIC (μg/mL) S. marcescens: 50 µg/mL
Pseudomonas aeruginosa; [18]
  MIC (μg/mL) P. aeruginosa: 25 µg/mL
Moraxella catarrhalis; [19]
  MIC (μg/mL) M. catarrhalis: 100 µg/mL
Proteus mirabilis; [20]
  MIC (μg/mL) P. mirabilis: 50 µg/mL
E. coli BL21; [21]
  MIC (μg/mL) E. coli BL21: 12.5 µg/mL
